{"source": "patent US12324839B2", "about": "“Testosterone-inducing peptide compounds and associated combinations” (THE ROYAL INSTITUTION FOR THE ADVANCEMENT OF …, priority 2018, dated 2025)", "key": {"[1]": {"test_system": "plasma testosterone level in Brown-Norway rats", "assay": "Oral administration (gavage) of peptides, plasma testosterone", "format": "in vivo", "details": "for average testosterone levels: gavage ~10 μg/kg; for average testosterone levels across doses: gavage ~10, 220, or 420 μg/kg, after two hrs, rats aged 82-131 days; for testosterone levels: oral gavage ~580 μg/kg", "experimental": "(§1) Peptides. Peptides were obtained from CanPeptide (Montreal, Quebec) with >95% purity. All peptides were dissolved in molecular grade, sterile double distilled water to obtain a 1 mM stock solution and stored at −20° C. Peptides used for oral screenings were prepared from 1 mM peptide stock and diluted in sterile tap water in a total volume of 1 mL. Peptides used for pharmacokinetic experiments were diluted at 10 mg/ml using sterile tap water. Some of the peptides were chemically modified after synthesis. The following table summarizes the peptides that have been tested:\n(§2) Animal handling, blood collections, surgical procedures, and oral administration of peptides. Brown-Norway rats aged 22-28, 36-42, or 50-56 days-old were purchased from Charles River Laboratories (Senneville, Quebec) and aged until needed. Rats were kept on a 12 L/12 D day cycle with lights on at 7 AM and access to food and water ad libitum.\n(§3) For all experiments, plasma samples were obtained via percutaneous jugular puncture and collected in EDTA KE/1.3 tubes (Sarstedt, Numbrecht, Germany, Cat #5072511). Blood collection time points are indicated in each figure legend. Samples were centrifuged at 1 300 RCF for 10 min, and the plasma was stored in 2 mL Wheaton glass vials (Fisher Scientific, Hampton, NH, Cat #03 337 21A) and kept at −20° C. until needed.\n(§4) For all oral experiments, administration via gavage began between 8:30-8:50 am with a 3-minute delay between each rat. Animals used for pharmacokinetic studies were fasted for 4 hrs before starting gavage at 1 pm with a 3-minute delay between each rat.\n(§5) Plasma steroid measurements. Testosterone levels were measured using Cayman (Ann Arbor, MI) EIA kit Cat #582701, and corticosterone levels were measured using Cayman EIA kit Cat #501320. All samples were measured in duplicate according to the manufacturer's instructions. Samples were diluted until the average control levels fitted the middle of the standard curve. The number of animals used for each experiment is noted in the corresponding figure legend."}, "[2]": {"test_system": "plasma testosterone level in Brown-Norway rats", "assay": "Subcutaneous osmotic pump infusion of tetrapeptides, plasma testosterone (Example I)", "format": "in vivo", "experimental": "Osmotic pumps. Model 2006 osmotic pumps, infusing 0.15 μL/hr, were purchased from Alzet (Cupertino, CA). The peptide concentration loaded into the pumps was adjusted to deliver the doses indicated in each figure. The pump infusion rates varied by production lot and were adjusted accordingly. Pumps were loaded 24 hrs prior to surgical implantation under sterile conditions and were kept at 37° C. in PBS.\nas §2, §3\nBrown-Norway rats aged ˜29 day-old were implanted with osmotic infusion pumps in the interscapular region under general anesthesia with isoflurane following antisepsis using iodine. The surgical wound was closed with two to three staples that were removed a week after the surgery. Subcutaneous carprofen (Zoetis, Parsippany, NJ) was given before the surgical procedure and in the following two days for pain management.\nas §5"}, "[3]": {"test_system": "plasma corticosterone level in Brown-Norway rats", "assay": "Oral administration (gavage) of peptides, plasma corticosterone", "format": "in vivo", "details": "gavage with increasing concentrations, 2 hrs", "experimental": "as §1, §2\nFor all experiments, plasma samples were obtained via percutaneous jugular puncture and collected in EDTA KE/1.3 tubes (Sarstedt, Numbrecht, Germany, Cat #5072511). […]\nPlasma steroid measurements. Testosterone levels were measured using Cayman (Ann Arbor, MI) EIA kit Cat #582701, and corticosterone levels were measured using Cayman EIA kit Cat #501320. All samples were measured in duplicate according to the manufacturer's instructions. […]"}, "[4]": {"assay": "Peptide stability in plasma", "format": "in vitro ADME, Brown-Norway rats", "details": "for half-life in plasma (rank order): 4 μM peptide (KVSQ 12.5 μM) in 100 μL rat plasma, 37° C., 1-120 minutes; for stability / degradation in plasma: in vitro rat plasma incubation", "experimental": "Peptide stability in plasma, oral pharmacokinetics, and quantification. For peptide stability experiments, plasma from Brown-Norway rats age 90-140 days was collected and stored at −20° C. until further use. The plasma was thawed, spun at 12 000 RPM for 10 min, and kept at 4° C. 4 μM of the various peptides were incubated with 100 μL of plasma that was warmed at 37° C. for 10 min before use. After 1, 15, 30, 60, 90 or 120 minutes, the plasma/peptide samples were crashed with 300 μL of 100% methanol, spun at 14 000 RPM for 10 min, and the supernatant collected. The methanol in the supernatant was evaporated and the samples were re-extracted. The final pellet was solubilized in 5 μL methanol followed by the addition of 100 μL of sterile double distilled water. The extracted samples were transferred to plastic tubes and placed in the autoloader of the mass spectrometer.\n(§6) The analytical instrumentation consisted of a Thermo-Scientific ISQ Quantiva Triple Quadrupole Mass Spectrometer (QQQ), incorporating a heated electrospray ionization (HESI) source, and a Thermo-Scientific UltiMate™ 3000 UHPLC system (including, UltiMate™ 3000 RS autosampler). Analytical conditions were developed using a reference standard in a solution containing 5 μM of the corresponding peptide. The chromatography was resolved by isocratic elution of a binary solvent system incorporating (A) 0.1% Formic Acid (aq) and (B) ACN+0.1% FA and using an Agilent Eclipse Plus™ C18 analytical column (100 mm×2.1 mm ID, 1.8 μm particle). A 5 μL injection volume and solvent flow rate of 150 μL/min were used. The MS/MS acquisition time was 7 min and total run time was 8.3 min/injection. The triple Quadrupole MS/MS instrumentation conditions were as follows: the HESI source voltage was 3200 V, the sheath gas […], auxiliary gas 20 L/min, sweep gas 2.0 L/min, the ion transfer temperature was 350° C., the vaporizer temperature was 350° C., the CID gas was 1.5 (mTorr) and the dwell time was 100 msec. The Q1 Resolution (FWHM) was 0.4 (unitless) and the Q3 resolution (FWHM) was 0.7 (unitless). The instrument ran in a selected reaction monitoring (SRM), positive ion detection mode at various collision energies (CE) for the following mass transitions: • Ac-RITQdS-NH2: p84 (m/z 645→m/z 295, m/z 396) • RdVTQ: p72 (m/z 503→m/z 211). • Ac-RdITQ-NH2: p87 (m/z 558→m/z 391, m/z 267) • RVTQ: p64 (m/z 503→m/z 211; m/z 503→m/z 357 and m/z 503→m/z 256) • KVSQ: p95 (m/z 461→m/z 129) and (m/z 461→m/z 234)"}, "[5]": {"assay": "Oral pharmacokinetics after single oral dose", "format": "in vivo, Brown-Norway rats", "details": "single oral dose of 10 mg peptide, gavage", "experimental": "as §4\nFor oral pharmacokinetic experiments, jugular blood samples were collected following a single oral dose of 10 mg peptide in 1 ml of vehicle after 5, 15, 30, 45, 60, 90, and 120 minutes. Protein inhibitor cocktail (ROCHE, cOmplete protein inhibitors, Cat #11697498001), which was added into the EDTA collection tubes, was used for KVSQ and RVTQ peptides. Plasma was immediately extracted, and 100 μL of plasma were crashed with 300 μL of 100% methanol, spun at 14 000 RPM for 10 min, and the supernatant harvested. Re-extraction of the precipitant and solubilization of the pellet were as described above.\nas §6, with “The instrument ran in a selected reaction monitoring (SRM), positive ion detection mode at various collision energies (CE) for the following mass transitions: • Ac-RITQdS-NH2: p84 (m/z 645→m/z 295, m/z 396) • RdVTQ: p72 (m/z 503→m/z 211). • Ac-RdITQ-NH2: p87 (m/z 558→m/z 391, m/z 267) • RVTQ: p64 (m/z 503→m/z 211; m/z 503→m/z 357 and m/z 503→m/z 256) • KVSQ: p95 (m/z 461→m/z 129) and (m/z 461→m/z 234)” left out"}, "[6]": {"details": "samples at age 54 days (first round), ~370 ng/kg/day"}}, "note": "Square brackets hold non-standard residues; d marks the D form. Peptide text beside a SMILES is read from it.", "data": [{"compound": "Ac-KdITQ-NH2", "values": [{"measurement": "average testosterone levels", "setting": "[1]; third screening, 2 hrs", "result": "increased, although not significantly"}]}, {"compound": "CC[C@H](C)[C@H](NC(=O)[C@@H](N)CCCNC(=N)N)C(=O)N[C@H](C(=O)N[C@@H](CCC(N)=O)C(=O)O)[C@@H](C)O", "note": "[RITQ] (H-RITQ-OH)", "values": [{"measurement": "circulating testosterone levels", "setting": "[2]; [6]", "result": "non-significant increase"}, {"measurement": "circulating testosterone levels", "setting": "[2]; samples at age 65 days (second round), ~330 ng/kg/day", "result": "significant increase"}, {"measurement": "testosterone levels, dose-response", "setting": "[1]; gavage 10 μg/kg, 2 hrs", "result": "significant increase"}, {"measurement": "testosterone levels, dose-response", "setting": "[1]; gavage ~220 μg/kg, 2 hrs", "result": "non-significant decrease"}, {"measurement": "testosterone levels, dose-response", "setting": "[1]; gavage ~520 μg/kg, 2 hrs", "result": "significant increase"}, {"measurement": "average testosterone levels", "setting": "[1]; third screening, 2 hrs", "result": "increased, although not significantly"}, {"measurement": "steroid (testosterone) levels", "setting": "[1]; third screening, gavage ~220 μg/kg, 2 hrs", "result": "decrease in steroid levels"}, {"measurement": "corticosterone levels, dose-response", "setting": "[3]", "result": "no corresponding significant changes"}, {"measurement": "half-life in plasma (rank order)", "setting": "[4]", "result": "Ac-RITQdS-NH2>RdVTQ>Ac-RdITQ-NH2>RITQ>RVTQ>KVSQ"}, {"measurement": "stability / degradation in plasma", "setting": "[4]", "result": "rapid time-dependent degradation"}]}, {"compound": "CC(C)[C@@H](NC(=O)[C@@H](N)CCCNC(=N)N)C(=O)N[C@H](C(=O)N[C@@H](CCC(N)=O)C(=O)O)[C@@H](C)O", "note": "[RdVTQ] (H-R[dV]TQ-OH)", "values": [{"measurement": "testosterone levels, dose-response", "setting": "[1]; gavage 10 μg/kg, 2 hrs", "result": "trend to increase"}, {"measurement": "testosterone levels, dose-response", "setting": "[1]; gavage 800 μg/kg, 2 hrs", "result": "significant increases"}, {"measurement": "testosterone levels, dose-response", "setting": "[1]; gavage ~400 μg/kg, 2 hrs", "result": "significant increases"}, {"measurement": "average testosterone levels across doses", "setting": "[1]", "result": "increased average testosterone levels"}, {"measurement": "average testosterone levels, dose-response", "setting": "[1]; gavage, all doses tested, 2 hrs", "result": "increased the average testosterone levels at all doses tested"}, {"measurement": "average testosterone levels", "setting": "[1]; third screening, 2 hrs", "result": "increased, although not significantly"}, {"measurement": "corticosterone levels, dose-response", "setting": "[3]", "result": "no corresponding significant changes"}, {"measurement": "half-life in plasma (rank order)", "setting": "[4]", "result": "Ac-RITQdS-NH2>RdVTQ>Ac-RdITQ-NH2>RITQ>RVTQ>KVSQ"}]}, {"compound": "KITQ", "values": [{"measurement": "circulating testosterone levels", "setting": "[2]; [6]", "result": "significant increase"}]}, {"compound": "CC[C@@H](C)[C@@H](NC(=O)[C@H](CCCNC(=N)N)NC(C)=O)C(=O)N[C@H](C(=O)N[C@@H](CCC(N)=O)C(N)=O)[C@@H](C)O", "note": "[Ac-RdITQ-NH2] (Ac-R[dI]TQ-NH2)", "values": [{"measurement": "average testosterone levels across doses", "setting": "[1]", "result": "increased average testosterone levels"}, {"measurement": "average testosterone levels", "setting": "[1]; third screening, 2 hrs", "result": "increased, although not significantly"}, {"measurement": "half-life in plasma (rank order)", "setting": "[4]", "result": "Ac-RITQdS-NH2>RdVTQ>Ac-RdITQ-NH2>RITQ>RVTQ>KVSQ"}]}, {"compound": "CC[C@H](C)[C@H](NC(=O)[C@H](CCCNC(=N)N)NC(C)=O)C(=O)N[C@H](C(=O)N[C@@H](CCC(N)=O)C(=O)N[C@H](CO)C(N)=O)[C@@H](C)O", "note": "[Ac-RITQdS-NH2] (Ac-RITQ[dS]-NH2)", "values": [{"measurement": "average testosterone levels across doses", "setting": "[1]", "result": "increased average testosterone levels"}, {"measurement": "average testosterone levels", "setting": "[1]; third screening, 2 hrs", "result": "increased, although not significantly"}, {"measurement": "half-life in plasma (rank order)", "setting": "[4]", "result": "Ac-RITQdS-NH2>RdVTQ>Ac-RdITQ-NH2>RITQ>RVTQ>KVSQ"}, {"measurement": "stability / degradation in plasma", "setting": "[4]", "result": "most stable peptide"}, {"measurement": "Tmax", "setting": "[5]; Brown-Norway, rat, plasma, read-out: time to peak concentration in blood (converted)", "result": "~15", "unit": "min"}]}, {"compound": "RVTQdS-NH2", "values": [{"measurement": "testosterone levels", "setting": "[1]; 2 hr post-treatment", "result": "best significant increase in testosterone levels"}, {"measurement": "testosterone levels", "setting": "[1]; 3 hrs sampling time", "result": "significantly increased testosterone levels"}]}, {"compound": "CC(C)[C@H](NC(=O)[C@@H](N)CCCCN)C(=O)N[C@@H](CO)C(=O)N[C@@H](CCC(N)=O)C(=O)O", "note": "[KVSQ] (H-KVSQ-OH)", "values": [{"measurement": "average testosterone levels across doses", "setting": "[1]", "result": "increased average testosterone levels"}, {"measurement": "average testosterone levels", "setting": "[1]; third screening, 2 hrs", "result": "increased, although not significantly"}, {"measurement": "half-life in plasma (rank order)", "setting": "[4]", "result": "Ac-RITQdS-NH2>RdVTQ>Ac-RdITQ-NH2>RITQ>RVTQ>KVSQ"}, {"measurement": "stability / degradation in plasma", "setting": "[4]", "result": "rapid degradation"}, {"measurement": "circulating peptide levels (detection)", "setting": "[5]", "result": "not detected"}]}]}
